From the supplement of paper PMC10307832

Experiments:
Assay in all cases: relative viability (nuclei count vs DMSO), 5 days (fraction); higher = more cells survive
Vemurafenib + Lapatinib = compound: CCCS(=O)(=O)Nc1ccc(F)c(C(=O)c2c[nH]c3ncc(-c4ccc(Cl)cc4)cc23)c1F [Vemurafenib] + CS(=O)(=O)CCNCc1ccc(-c2ccc3ncnc(Nc4ccc(OCc5cccc(F)c5)c(Cl)c4)c3c2)o1 [Lapatinib] (partner 2 µM)
In short: (§1)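 One day after seeding in 1536-well plates, lung cancer cell lines were dosed by pin tool. Dosing was either single-drug or a fixed anchor-drug dose plus five library-drug doses (not always all listed) in √10 steps. After 5 days, nuclei were stained in one fix-and-stain step and counted on 4× images, and relative viability is the nuclei count of treated wells over that of vehicle wells, given as the median of duplicate plates.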

Alpelisib + OSI-027 = compound: Cc1nc(NC(=O)N2CCC[C@H]2C(N)=O)sc1-c1ccnc(C(C)(C)C(F)(F)F)c1 [Alpelisib] + COc1cccc2cc(-c3nc([C@H]4CC[C@H](C(=O)O)CC4)n4ncnc(N)c34)[nH]c12 [OSI-027] (partner 0.5 µM)
In short: as §1

Alpelisib + Pictilisib = compound: Cc1nc(NC(=O)N2CCC[C@H]2C(N)=O)sc1-c1ccnc(C(C)(C)C(F)(F)F)c1 [Alpelisib] + CS(=O)(=O)N1CCN(Cc2cc3nc(-c4cccc5[nH]ncc45)nc(N4CCOCC4)c3s2)CC1 [Pictilisib] (partner 1 µM)
In short: as §1

Alpelisib + Decitabine = compound: Cc1nc(NC(=O)N2CCC[C@H]2C(N)=O)sc1-c1ccnc(C(C)(C)C(F)(F)F)c1 [Alpelisib] + Nc1ncn([C@H]2C[C@H](O)[C@@H](CO)O2)c(=O)n1 [Decitabine] (partner 2 µM)
In short: as §1

Cell Line	relative viability (Vemurafenib + Lapatinib; first compound 0.03162 µM)	relative viability (Vemurafenib + Lapatinib; first compound 0.1 µM)	relative viability (Vemurafenib + Lapatinib; first compound 0.3162 µM)	relative viability (Vemurafenib + Lapatinib; first compound 1 µM)	relative viability (Alpelisib + OSI-027; first compound 0.04 µM)	relative viability (Alpelisib + OSI-027; first compound 0.1265 µM)	relative viability (Alpelisib + OSI-027; first compound 0.4 µM)	relative viability (Alpelisib + OSI-027; first compound 1.265 µM)	relative viability (Alpelisib + OSI-027; first compound 4 µM)	relative viability (Alpelisib + Pictilisib; first compound 0.04 µM)	relative viability (Alpelisib + Pictilisib; first compound 0.1265 µM)	relative viability (Alpelisib + Pictilisib; first compound 0.4 µM)	relative viability (Alpelisib + Pictilisib; first compound 1.265 µM)	relative viability (Alpelisib + Pictilisib; first compound 4 µM)	relative viability (Alpelisib + Decitabine; first compound 0.04 µM)	relative viability (Alpelisib + Decitabine; first compound 0.1265 µM)	relative viability (Alpelisib + Decitabine; first compound 0.4 µM)	relative viability (Alpelisib + Decitabine; first compound 1.265 µM)	relative viability (Alpelisib + Decitabine; first compound 4 µM)
NCI-H650	0.838	1.15	0.313	0.681	0.552	0.435	0.488	0.357	0.325	0.756	0.804	1.09	0.746	0.808	0.352	0.324	0.327	0.318	0.284
NCI-H2170	0.277	0.244	0.266	0.267	0.695	0.612	0.663	0.589	0.39	0.322	0.328	0.331	0.343	0.283	0.44	0.424	0.477	0.439	0.401
HCC-366	1.09	1.07		1.05	0.867	0.877	0.762	0.473	0.355	0.151	0.137	0.196	0.11	0.222	0.322	0.318	0.327	0.231	0.194
EKVX	0.189		0.253	0.208	0.594	0.531	0.773	0.496	0.356	0.441	0.419	0.419	0.466	0.428	0.313	0.17	0.389	0.312	0.283
NCI-H1792	0.819	0.886	0.651	0.959	0.653	0.866	0.677	0.44	0.292	0.227	0.306	0.309	0.253	0.206	0.444	0.368	0.581	0.443	0.401
NCI-H1734	0.872	1.04	0.903	0.993	0.513		0.455	0.278	0.201	0.472	0.427	0.494	0.397	0.343	0.532	0.478	0.497	0.477	0.255
NCI-H2347	0.794	1.02	0.628	0.637	0.484	0.398	0.356	0.3	0.233	0.757	0.776	0.571	0.648	0.554	0.641	0.635	0.657	0.539	0.571
SK-MES-1	0.427	0.477	0.493	0.486	0.57	0.541	0.553	0.442	0.351	0.361	0.39	0.467	0.333	0.316	0.363	0.376	0.358	0.292	0.297
NCI-H3122	1.03	1.04	1.12	1.02	0.928	0.791	0.648	0.37	0.176	0.622	0.69	0.572	0.58	0.53	0.371	0.454	0.374	0.278	0.209
NCI-H23	0.87	1.16	0.749	1.36	0.672	0.485	0.521	0.363	0.314	0.605	0.493	0.528	0.419	0.464	0.322	0.276	0.327	0.28	0.198
ABC-1	1.19	0.991	1.35	0.973	0.475	0.347	0.418	0.283	0.356	0.721	0.775	1.05	0.627	0.477	1.15	1	1.21	0.612	1.12
HCC-15	0.786	0.849	0.613	0.773	0.623	0.563	0.589	0.484	0.339	0.721	0.673	0.822	0.716	0.63	0.642	0.531	0.622	0.504	0.383
NCI-H358	0.408		0.505	0.407	0.558	0.767	0.572	0.292	0.121	0.382	0.316	0.379	0.268	0.205	0.194	0.195	0.205	0.178	0.169
COR-L23	1.01	0.91	0.684	0.98	0.81	0.713	0.938	0.566	0.492	0.744	0.79	0.865	0.594	0.636	0.423	0.427	0.438	0.333	0.355
NCI-H2009	0.897	0.876	0.559	0.759	0.602	0.574	0.655	0.428	0.429	0.805	0.773	1.02	0.767	0.52	0.35	0.458	0.398	0.389	0.354
NCI-H1755	0.925	1.02	0.777	0.988	0.684	0.575	0.719	0.55	0.509	0.451	0.309	0.427	0.456	0.363	0.661	0.69	0.778	0.678	0.575
LCLC-97TM1	0.825	0.981	1.63	0.696	0.434	0.391	0.243	0.181	0.1	0.178	0.175	0.179	0.195	0.21	0.232	0.222	0.213	0.191	0.177

Cell Line	relative viability (Vemurafenib + Lapatinib; first compound 0.03162 µM)	relative viability (Vemurafenib + Lapatinib; first compound 0.1 µM)	relative viability (Vemurafenib + Lapatinib; first compound 0.3162 µM)	relative viability (Vemurafenib + Lapatinib; first compound 1 µM)	relative viability (Alpelisib + OSI-027; first compound 0.04 µM)	relative viability (Alpelisib + OSI-027; first compound 0.1265 µM)	relative viability (Alpelisib + OSI-027; first compound 0.4 µM)	relative viability (Alpelisib + OSI-027; first compound 1.265 µM)	relative viability (Alpelisib + OSI-027; first compound 4 µM)	relative viability (Alpelisib + Pictilisib; first compound 0.04 µM)	relative viability (Alpelisib + Pictilisib; first compound 0.1265 µM)	relative viability (Alpelisib + Pictilisib; first compound 0.4 µM)	relative viability (Alpelisib + Pictilisib; first compound 1.265 µM)	relative viability (Alpelisib + Pictilisib; first compound 4 µM)	relative viability (Alpelisib + Decitabine; first compound 0.04 µM)	relative viability (Alpelisib + Decitabine; first compound 0.1265 µM)	relative viability (Alpelisib + Decitabine; first compound 0.4 µM)	relative viability (Alpelisib + Decitabine; first compound 1.265 µM)	relative viability (Alpelisib + Decitabine; first compound 4 µM)
NCI-H2085	0.729	0.778	0.766	0.695	0.826	0.658	0.709	0.585	0.574	0.503	0.549	0.518	0.427	0.426	0.601	0.524	0.538	0.574	0.467
NCI-H647	0.951	1.06	0.852	0.949	0.614	0.576	0.626	0.392	0.471	0.446	0.385	0.402	0.294	0.378	0.423	0.497	0.537	0.306	0.35
BEN	0.765	0.77	0.323	0.525	0.295	0.299	0.276	0.315	0.245	0.562	0.523	0.705	0.579	0.578	0.776	0.679	0.837	0.693	0.749
NCI-H1944	0.818	0.815	0.725	0.789	0.365	0.401	0.332	0.281	0.223	0.331	0.386	0.349	0.344	0.336	0.429	0.44	0.413	0.37	0.384
NCI-H1395	0.891	0.95		1.19	0.593	0.558	0.717	0.588	0.634	0.493	0.673	0.663	0.615	0.492	0.747	0.699	0.75	0.645	0.65
201T	0.965	1.02	1.02	1.04	0.811	0.566	0.661	0.471	0.402	0.655	0.725	0.637	0.642	0.62	0.85	0.78	0.88	0.772	0.628
NCI-H2405	0.935	0.986		1.1	0.588	0.534	0.639	0.417	0.384	0.443	0.502	0.527	0.488	0.39	0.756	0.731	0.699	0.517	0.58
RERF-LC-KJ	0.782	0.903	0.799	0.891	0.482	0.547	0.507	0.393	0.347	0.557	0.583	0.559	0.268	0.46	0.668	0.638	0.706	0.5	0.536
NCI-H596	1.04	1.03	0.874	1.07	0.629	0.571	0.589	0.457	0.357	0.404	0.413	0.362	0.399	0.358	1	0.954	1.01	0.699	0.61
NCI-H1993	0.843		0.8	0.793	0.596	0.492	0.524	0.571	0.521	0.825	0.803	0.767	0.696	0.918	0.547	0.561	0.592	0.494	0.671
EPLC-272H	0.913	1	0.423	0.939	0.214	0.268	0.274	0.23	0.195	0.338	0.282	0.298	0.336	0.262	0.337	0.374	0.388	0.297	0.284
NCI-H1915	0.894	0.951	0.87	0.985	0.628	0.597	0.61	0.558	0.401	0.925	0.987	1.02	0.908	0.766	0.267	0.285	0.255	0.265	0.251
LC-2-ad	0.881	0.928	0.778	0.866	0.783	0.692	0.712	0.478	0.416	0.443	0.435	0.434	0.296	0.415	0.823	0.767	0.83	0.735	0.768
NCI-H2126	0.753	0.783	0.862	0.731	0.796	0.67	0.667	0.576	0.38	0.499	0.506	0.496	0.491	0.501	0.586	0.576	0.607	0.454	0.428
HCC-44	0.991	0.993	0.935	1.04	0.519	0.419	0.541	0.307	0.451	0.669	0.654	0.822	0.491	0.441	0.891	0.97	1.02	0.921	0.889
HOP-62	0.915	1.14	0.906	0.796	0.822	0.793	0.949	0.626	0.589	1.06	0.698	0.988	0.586	0.727	0.259	0.22	0.216	0.234	0.283
HARA	0.745		0.782	0.625	0.396	0.287	0.48	0.255	0.164	0.3	0.488	0.459	0.326	0.244	0.387	0.556	0.514	0.377	0.432
